{"source": "patent US10800792B2", "about": "“Inhibitors of Bruton's tyrosine kinase and method of their use” (JANSSEN PHARMACEUTICA NV, priority 2015, dated 2020)", "data": [{"target": "unphosphorylated-BTK kinase domain (UP-BTK), GST-tagged human BTK (389-659aa) (Homo sapiens (Human), UniProt Q06187)", "sequence (Q06187 389-659)": "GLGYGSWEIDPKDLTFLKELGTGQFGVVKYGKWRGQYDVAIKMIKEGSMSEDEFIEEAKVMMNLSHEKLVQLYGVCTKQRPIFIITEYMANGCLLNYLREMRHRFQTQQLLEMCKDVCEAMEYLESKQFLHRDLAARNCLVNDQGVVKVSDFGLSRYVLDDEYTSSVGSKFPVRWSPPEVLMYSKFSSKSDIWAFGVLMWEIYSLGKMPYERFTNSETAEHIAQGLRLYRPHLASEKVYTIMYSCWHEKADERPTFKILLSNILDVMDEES", "test": "BTK kinase Lanthascreen binding assay", "settings": "Lanthascreen tracer competition, 60 minutes incubation; pIC50 = negative log of the IC50 in molar", "method_in_brief": "(§1)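 Lanthascreen competition binding; test compound vs fluorescent tracer on unphosphorylated BTK. Output: pIC50 (−log IC50, M).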", "values": [{"smiles": "O=C(N[C@@H]1CCCNC1)c1sc2nccc3c2c1NC(=O)N3c1cccc(Oc2ccccc2)n1", "note": "[Example 645, (R)-4-Oxo-5-(6-phenoxypyridin-2-yl)-N-(piperidin-3-yl)-4,5-dihydro-3H-1-thia-3,5,8-triazaacenaphthylene-2-carboxamide]", "BTK_I_binding pIC50": "<5"}, {"smiles": "CC(C)(C)c1cccc(N2C(=O)Nc3c(C(=O)N[C@@H]4CCCNC4)sc4nccc2c34)c1", "note": "[Example 646, (R)-5-(3-(tert-Butyl)phenyl)-4-oxo-N-(piperidin-3-yl)-4,5-dihydro-3H-1-thia-3,5,8-triazaacenaphthylene-2-carboxamide]", "BTK_I_binding pIC50": "<5"}, {"smiles": "CC(C)(C)OC(=O)N1CCC[C@@H](NC(=O)c2sc3nccc4c3c2NC(=O)N4c2cccc(C(C)(C)C)c2)C1", "note": "[Example 648, (R)-tert-Butyl 3-(5-(3-(tert-butyl)phenyl)-4-oxo-4,5-dihydro-3H-1-thia-3,5,8-triazaacenaphthylene-2-carboxamido)piperidine-1-carboxylate]", "BTK_I_binding pIC50": "<5"}, {"smiles": "CC(=O)c1cccc(N2C(=O)Nc3c(C(=O)N[C@@H]4CCCN(C(=O)OC(C)(C)C)C4)sc4nccc2c34)c1", "note": "[Example 649, (R)-tert-Butyl 3-(5-(3-acetylphenyl)-4-oxo-4,5-dihydro-3H-1-thia-3,5,8-triazaacenaphthylene-2-carboxamido)piperidine-1-carboxylate]", "BTK_I_binding pIC50": "<5"}, {"smiles": "CC(C)(C)S(=O)(=O)c1ccc(N2C(=O)Nc3c(C(=O)N[C@@H]4CCCNC4)sc4nccc2c34)cc1", "note": "[Example 650, (R)-5-(4-(tert-Butylsulfonyl)phenyl)-4-oxo-N-(piperidin-3-yl)-4,5-dihydro-3H-1-thia-3,5,8-triazaacenaphthylene-2-carboxamide]", "BTK_I_binding pIC50": "<5"}, {"smiles": "CC(C)(C)OC(=O)N1CCC[C@@H](NC(=O)c2sc3nccc4c3c2NC(=O)N4c2ccc(S(=O)(=O)C(C)(C)C)cc2)C1", "note": "[Example 651, (R)-tert-Butyl 3-(5-(4-(tert-butylsulfonyl)phenyl)-4-oxo-4,5-dihydro-3H-1-thia-3,5,8-triazaacenaphthylene-2-carboxamido)piperidine-1-carboxylate]", "BTK_I_binding pIC50": "<5"}, {"smiles": "CC(C)(C)OC(=O)N1CCC[C@@H](NC(=O)c2sc3nccc4c3c2NC(=O)N4c2ccc(OC(C)(C)C)cc2)C1", "note": "[Example 652, (R)-tert-Butyl 3-(5-(4-(tert-butoxy)phenyl)-4-oxo-4,5-dihydro-3H-1-thia-3,5,8-triazaacenaphthylene-2-carboxamido)piperidine-1-carboxylate]", "BTK_I_binding pIC50": "<5"}, {"smiles": "CC(C)(C)OC(=O)N1CCC[C@@H](NC(=O)c2sc3nccc4c3c2NC(=O)N4c2ccc3c(c2)OC(F)(F)O3)C1", "note": "[Example 653, (R)-tert-Butyl 3-(5-(2,2-difluorobenzo[d][1,3]dioxol-5-yl)-4-oxo-4,5-dihydro-3H-1-thia-3,5,8-triazaacenaphthylene-2-carboxamido)piperidine-1-carboxylate]", "BTK_I_binding pIC50": "<5"}, {"smiles": "CC(C)(C)OC(=O)N1CCC[C@@H](NC(=O)c2sc3nccc4c3c2NC(=O)N4c2ccc(OC3CCC3)nc2)C1", "note": "[Example 654, (R)-tert-Butyl 3-(5-(6-cyclobutoxypyridin-3-yl)-4-oxo-4,5-dihydro-3H-1-thia-3,5,8-triazaacenaphthylene-2-carboxamido)piperidine-1-carboxylate]", "BTK_I_binding pIC50": "<5"}, {"smiles": "C=CC(=O)N1CC[C@@H](O)[C@H](NC(=O)c2sc3nccc4c3c2NC(=O)N4c2ccc(Oc3ccccc3)cc2)C1", "note": "[Example 655, N-((3R,4R)-1-Acryloyl-4-hydroxypiperidin-3-yl)-4-oxo-5-(4-phenoxyphenyl)-4,5-dihydro-3H-1-thia-3,5,8-triazaacenaphthylene-2-carboxamide]", "BTK_I_binding pIC50": 8.0}, {"smiles": "Cc1nc(Oc2ccccc2)cnc1N1C(=O)Nc2c(C(=O)N[C@@H]3CCCNC3)sc3nccc1c23", "note": "[Example 656, (R)-5-(3-Methyl-5-phenoxypyrazin-2-yl)-4-oxo-N-(piperidin-3-yl)-4,5-dihydro-3H-1-thia-3,5,8-triazaacenaphthylene-2-carboxamide]", "BTK_I_binding pIC50": 6.2}, {"smiles": "C=CC(=O)N1CCC[C@@H](NC(=O)c2sc3nccc4c3c2NC(=O)N4c2ncc(Oc3ccccc3)nc2C)C1", "note": "[Example 657, (R)—N-(1-Acryloylpiperidin-3-yl)-5-(3-methyl-5-phenoxypyrazin-2-yl)-4-oxo-4,5-dihydro-3H-1-thia-3,5,8-triazaacenaphthylene-2-carboxamide]", "BTK_I_binding pIC50": 7.7}, {"smiles": "O=C(N[C@@H]1CNCC[C@H]1O)c1sc2nccc3c2c1NC(=O)N3c1ccc(Oc2ccccc2)cc1", "note": "[Example 658, N-((3R,4R)-4-Hydroxypiperidin-3-yl)-4-oxo-5-(4-phenoxyphenyl)-4,5-dihydro-3H-1-thia-3,5,8-triazaacenaphthylene-2-carboxamide]", "BTK_I_binding pIC50": 6.6}, {"smiles": "C=CC(=O)N1CCC[C@@H](NC(=O)c2sc3nccc4c3c2NC(=O)N4c2ncc(Oc3ccccc3)cn2)C1", "note": "[Example 665, (R)—N-(1-Acryloylpiperidin-3-yl)-4-oxo-5-(5-phenoxypyrimidin-2-yl)-4,5-dihydro-3H-1-thia-3,5,8-triazaacenaphthylene-2-carboxamide]", "BTK_I_binding pIC50": 7.8}, {"smiles": "C=CC(=O)N1CCC[C@@H](NC(=O)c2sc3nccc4c3c2NC(=O)N4c2cnc(Oc3ccccc3)cc2C)C1", "note": "[Example 667, (R)—N-(1-Acryloylpiperidin-3-yl)-5-(4-methyl-6-phenoxypyridin-3-yl)-4-oxo-4,5-dihydro-3H-1-thia-3,5,8-triazaacenaphthylene-2-carboxamide]", "BTK_I_binding pIC50": 7.9}, {"smiles": "C=CC(=O)N1CCC[C@@H](NC(=O)c2sc3nccc4c3c2NC(=O)N4c2ccc(Oc3ccccc3)nc2C)C1", "note": "[Example 670, (R)—N-(1-Acryloylpiperidin-3-yl)-5-(2-methyl-6-phenoxypyridin-3-yl)-4-oxo-4,5-dihydro-3H-1-thia-3,5,8-triazaacenaphthylene-2-carboxamide]", "BTK_I_binding pIC50": 8.2}, {"smiles": "C=CC(=O)N1CCC[C@@H](NC(=O)c2sc3nccc4c3c2NC(=O)N4c2cnc(OC3CCC3)cc2C)C1", "note": "[Example 672, (R)—N-(1-Acryloylpiperidin-3-yl)-5-(6-cyclobutoxy-4-methylpyridin-3-yl)-4-oxo-4,5-dihydro-3H-1-thia-3,5,8-triazaacenaphthylene-2-carboxamide]", "BTK_I_binding pIC50": 7.6}, {"smiles": "C=CC(=O)N1CC[C@@H](NC(=O)c2sc3nccc4c3c2NC(=O)N4c2cccc(-c3cccc(F)c3F)c2)C1", "note": "[Example 673, (R)—N-(1-Acryloylpyrrolidin-3-yl)-5-(2′,3′-difluoro-[1,1′-biphenyl]-3-yl)-4-oxo-4,5-dihydro-3H-1-thia-3,5,8-triazaacenaphthylene-2-carboxamide]", "BTK_I_binding pIC50": 8.2}, {"smiles": "C=CC(=O)N1C[C@@H](O)C[C@@H](NC(=O)c2sc3nccc4c3c2NC(=O)N4c2cccc(-c3cccc(F)c3F)c2)C1", "note": "[Example 674, N-((3R,5S)-1-Acryloyl-5-hydroxypiperidin-3-yl)-5-(2′,3′-difluoro-[1,1′-biphenyl]-3-yl)-4-oxo-4,5-dihydro-3H-1-thia-3,5,8-triazaacenaphthylene-2-carboxamide]", "BTK_I_binding pIC50": 8.2}, {"smiles": "C=CC(=O)N1CCC[C@@H](NC(=O)c2sc3nccc4c3c2NC(=O)N4c2ccnc(C3CCCCC3)c2)C1", "note": "[Example 677, (R)—N-(1-Acryloylpiperidin-3-yl)-5-(2-cyclohexylpyridin-4-yl)-4-oxo-4,5-dihydro-3H-1-thia-3,5,8-triazaacenaphthylene-2-carboxamide]", "BTK_I_binding pIC50": 7.3}, {"smiles": "C=CC(=O)N1CCC[C@@H](NC(=O)c2sc3nccc4c3c2NC(=O)N4c2cnnc(-c3ccccc3)c2)C1", "note": "[Example 678, (R)—N-(1-Acryloylpiperidin-3-yl)-4-oxo-5-(6-phenylpyridazin-4-yl)-4,5-dihydro-3H-1-thia-3,5,8-triazaacenaphthylene-2-carboxamide]", "BTK_I_binding pIC50": 7.3}, {"smiles": "C=CC(=O)N1C[C@H](NC(=O)c2sc3nccc4c3c2NC(=O)N4c2cccc(-c3cccc(F)c3F)c2)C[C@H](OC)C1", "note": "[Example 679, N-((3R,5S)-1-Acryloyl-5-methoxypiperidin-3-yl)-5-(2′3′-difluoro-[1,1′-biphenyl]-3-yl)-4-oxo-4,5-dihydro-3H-1-thia-3,5,8-triazaacenaphthylene-2-carboxamide]", "BTK_I_binding pIC50": 7.8}, {"smiles": "C=CC(=O)N1CC[C@@H](NC(=O)c2sc3nccc4c3c2NC(=O)N4c2ccc(Oc3ccccc3)nc2)C1", "note": "[Example 680, (R)—N-(1-Acryloylpyrrolidin-3-yl)-4-oxo-5-(6-phenoxypyridin-3-yl)-4,5-dihydro-3H-1-thia-3,5,8-triazaacenaphthylene-2-carboxamide]", "BTK_I_binding pIC50": 7.3}, {"smiles": "CC(=O)N1CCC[C@H]1/C=C(\\C#N)C(=O)N1CCC[C@@H](NC(=O)c2sc3nccc4c3c2NC(=O)N4c2ccc(Oc3ccccc3)cc2C)C1", "note": "[Example 681, N—((R)-1-((*E)-3-((S)-1-Acetylpyrrolidin-2-yl)-2-cyanoacryloyl)piperidin-3-yl)-5-(2-methyl-4-phenoxyphenyl)-4-oxo-4,5-dihydro-3H-1-thia-3,5,8-triazaacenaphthylene-2-carboxamide]", "BTK_I_binding pIC50": 7.7}]}, {"target": "unphosphorylated-BTK kinase domain (UP-BTK), GST-tagged human BTK (389-659aa) (Homo sapiens (Human), UniProt Q06187)", "test": "BTK kinase Lanthascreen binding assay", "settings": "Lanthascreen tracer competition, 60 minutes incubation; pIC50 = negative log of the IC50 in molar; read-out: BTK_I_binding pIC50 (converted)", "method_in_brief": "as §1", "units": {"IC50": "µM"}, "values": [{"smiles": "O=C(N[C@@H]1CCCNC1)c1sc2nccc3c2c1NC(=O)N3c1cccc(-c2ccncc2)c1", "note": "[Example 647, (R)-4-Oxo-N-(piperidin-3-yl)-5-(3-(pyridin-4-yl)phenyl)-4,5-dihydro-3H-1-thia-3,5,8-triazaacenaphthylene-2-carboxamide]", "IC50": "> 10"}]}]}
